The target in assay [1] is CRBN/DDB1 protein complex (Homo sapiens, UniProt Q96SW2). As to the kind of experiment: CRBN displacement TR-FRET assay. The conditions noted are these: Thalidomide-Red tracer, 6×His-CRBN/DDB1; read-out: CRBN binding Ki. The essentials:
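Test compound at various concentrations competed with 6.8 nM Thalidomide-Red tracer for 5 nM 6×His-CRBN/DDB1, detected with 0.5 nM anti-His-Eu cryptate in buffer with 1 mM DTT and 1% DMSO. Incubation ran 180 min at room temperature with a time-resolved fluorescence read-out. IC50 values were converted to Ki by Cheng–Prusoff using tracer Kd and protein and tracer concentrations.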
A general note: TR-FRET usually uses a lanthanide donor and a delayed reading to cut background.

Another assay concerns GSPT1-HiBiT HEK293 cells. As to the kind of experiment: Cell Viability-CTG assay accompanying the Nano-Glo HiBiT assay. In kind it is cell-based. The conditions noted are these: 6 hours treatment, viability of GSPT1-HiBiT HEK293 cells. The method, boiled down:
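HEK293 GSPT1-HiBiT cells treated as for the HiBiT assay, incubated 6 h at 37 °C/5% CO2, then equilibrated to RT. Viability read by CellTiter-Glo luminescence after 4 min shaking and 8 min dark incubation; Mean Minimum values derived by non-linear regression of RLU data.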
In general terms: HiBiT is a short tag that completes a luciferase, so light tracks the accessible tagged protein.

The target in assay [2] is [CK1α]-[compound]-[CRBN/DDB1] ternary complex (Homo sapiens, UniProt P48729+Q96SW2). As to the kind of experiment: AlphaLISA assay for off-target recruitment detection, CK1α. The assay is classed as binding. The note with it: 1 μM compound; normalized to FPFT-2216; read-out: Normalized ternary complex response, CK1α. The essentials: (§1)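 Neo-substrate with 40 μg/ml donor beads and 200 nM 6×His-CRBN/DDB1 with 40 μg/ml anti-His acceptor beads were each prepared in PBS pH 7.4 with Tween-20 and 1 mM DTT, preincubated 30 min at RT, then mixed. Compounds at 2% DMSO were incubated 30 min at 25 °C, read at 680/615 nm, and normalised between DMSO background and reference glue maximum.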
[CK1α]-[compound]-[CRBN/DDB1] ternary complex, sequence (P48729 whole entry): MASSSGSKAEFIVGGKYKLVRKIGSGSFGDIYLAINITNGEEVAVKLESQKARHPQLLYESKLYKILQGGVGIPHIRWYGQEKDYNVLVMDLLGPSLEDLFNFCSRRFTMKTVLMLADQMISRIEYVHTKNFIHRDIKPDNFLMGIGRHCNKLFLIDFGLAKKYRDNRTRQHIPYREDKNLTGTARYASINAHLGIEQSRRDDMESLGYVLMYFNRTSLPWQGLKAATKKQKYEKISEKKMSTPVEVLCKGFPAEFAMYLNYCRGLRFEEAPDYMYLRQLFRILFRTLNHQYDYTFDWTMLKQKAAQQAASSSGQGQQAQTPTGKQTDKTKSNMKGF
[CK1α]-[compound]-[CRBN/DDB1] ternary complex, sequence (Q96SW2 whole entry): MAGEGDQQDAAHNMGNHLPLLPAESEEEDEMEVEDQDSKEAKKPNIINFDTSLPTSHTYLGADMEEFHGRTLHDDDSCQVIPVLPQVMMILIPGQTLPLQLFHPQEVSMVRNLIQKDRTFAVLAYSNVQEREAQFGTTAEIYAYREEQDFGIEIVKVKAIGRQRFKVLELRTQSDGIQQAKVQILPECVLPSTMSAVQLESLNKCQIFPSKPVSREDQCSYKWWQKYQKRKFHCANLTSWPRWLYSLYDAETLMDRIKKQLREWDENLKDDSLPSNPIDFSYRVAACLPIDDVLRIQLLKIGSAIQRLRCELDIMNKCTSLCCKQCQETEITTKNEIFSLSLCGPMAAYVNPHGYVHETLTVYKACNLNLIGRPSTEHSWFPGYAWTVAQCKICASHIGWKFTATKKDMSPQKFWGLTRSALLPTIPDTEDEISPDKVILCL
[CK1α]-[compound]-[CRBN/DDB1] ternary complex, sequence (Q16531 whole entry partner): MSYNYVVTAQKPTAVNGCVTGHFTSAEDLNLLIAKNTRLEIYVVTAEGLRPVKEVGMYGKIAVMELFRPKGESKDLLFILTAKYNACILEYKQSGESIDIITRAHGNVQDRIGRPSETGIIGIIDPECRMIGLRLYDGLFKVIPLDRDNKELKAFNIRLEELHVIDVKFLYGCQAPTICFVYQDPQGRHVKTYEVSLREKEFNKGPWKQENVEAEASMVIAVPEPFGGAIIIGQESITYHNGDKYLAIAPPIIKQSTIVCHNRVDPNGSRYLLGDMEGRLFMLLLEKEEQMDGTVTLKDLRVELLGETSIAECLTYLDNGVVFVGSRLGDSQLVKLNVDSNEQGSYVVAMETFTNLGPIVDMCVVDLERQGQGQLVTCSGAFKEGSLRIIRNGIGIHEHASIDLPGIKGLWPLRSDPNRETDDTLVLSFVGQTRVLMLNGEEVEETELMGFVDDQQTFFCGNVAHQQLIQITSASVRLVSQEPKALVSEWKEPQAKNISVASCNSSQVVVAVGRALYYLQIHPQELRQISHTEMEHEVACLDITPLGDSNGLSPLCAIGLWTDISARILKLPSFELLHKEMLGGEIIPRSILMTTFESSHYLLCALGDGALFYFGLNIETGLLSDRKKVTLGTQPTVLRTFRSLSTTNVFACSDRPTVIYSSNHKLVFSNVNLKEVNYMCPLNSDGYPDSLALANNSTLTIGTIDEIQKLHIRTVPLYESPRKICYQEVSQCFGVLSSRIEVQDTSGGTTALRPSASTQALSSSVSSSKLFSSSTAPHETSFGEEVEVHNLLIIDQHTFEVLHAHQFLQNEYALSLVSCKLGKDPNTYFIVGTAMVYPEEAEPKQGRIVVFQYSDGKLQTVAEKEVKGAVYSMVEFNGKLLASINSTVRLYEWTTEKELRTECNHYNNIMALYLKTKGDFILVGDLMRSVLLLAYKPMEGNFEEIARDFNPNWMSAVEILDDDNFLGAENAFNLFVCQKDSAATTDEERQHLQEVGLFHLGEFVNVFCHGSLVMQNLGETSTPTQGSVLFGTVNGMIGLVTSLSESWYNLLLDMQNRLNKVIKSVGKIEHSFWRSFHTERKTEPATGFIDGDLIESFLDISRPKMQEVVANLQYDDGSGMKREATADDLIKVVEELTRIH

Assay [3] addresses T1, [IKZF1 ZF2]-[compound]-[CRBN/DDB1] ternary complex (Homo sapiens, UniProt Q13422+Q96SW2).
T1 construct: IKZF1 ZF2
As to the kind of experiment: AlphaLISA assay for off-target recruitment detection, IKZF1 ZF2. The assay is classed as binding. The note with it: 1 μM compound; normalized to Lenalidomide; read-out: Normalized ternary complex response, IKZF1 ZF2. The method, boiled down: as §1
In general terms: In Alpha technology, singlet oxygen from a donor bead excites a nearby acceptor bead.

In assay [4] the target is T2, [IKZF2 ZF2]-[compound]-[CRBN/DDB1] ternary complex (Homo sapiens, UniProt Q96SW2+Q9UKS7).
T2 construct: IKZF2 ZF2
T2 sequence (Q9UKS7 140-162 limits assumed): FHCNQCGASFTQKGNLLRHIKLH
T2 sequence (Q96SW2 whole entry): as the sequence (Q96SW2 whole entry) above
T2 sequence (Q16531 whole entry partner): as the sequence (Q16531 whole entry partner) above
As to the kind of experiment: AlphaLISA assay for off-target recruitment detection, IKZF2 ZF2. The note with it: 1 μM compound; normalized to Helios modulator; read-out: Normalized ternary complex response, IKZF2 ZF2. The assay is classed as binding. The method, boiled down:
as §1

Assay [5] addresses [GSPT1]-[compound of formula (I)]-[CRBN/DDB1] complex (Homo sapiens, UniProt P15170+Q96SW2). As to the kind of experiment: HTRF ternary complex assay (GSPT1). In kind it is binding. The note with it: read-out: HTRF ternary complex Average pEC50 by molecule (converted). The method, boiled down:
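Compounds in dose-response were incubated 180 min at 25 °C with 48 nM GSPT1 and 52.8 nM 6×His-CRBN/DDB1, plus Streptavidin-Eu cryptate and anti-6×His-d2, in buffer with 1 mM DTT and 0.5% DMSO. TR-FRET (665/620) was normalized to DMSO background and fitted with a Hill slope model for EC50/pEC50.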

Where only a bound is given, the exact number is not on record here.

[GSPT1]-[compound of formula (I)]-[CRBN/DDB1] complex, sequence (P15170 whole entry): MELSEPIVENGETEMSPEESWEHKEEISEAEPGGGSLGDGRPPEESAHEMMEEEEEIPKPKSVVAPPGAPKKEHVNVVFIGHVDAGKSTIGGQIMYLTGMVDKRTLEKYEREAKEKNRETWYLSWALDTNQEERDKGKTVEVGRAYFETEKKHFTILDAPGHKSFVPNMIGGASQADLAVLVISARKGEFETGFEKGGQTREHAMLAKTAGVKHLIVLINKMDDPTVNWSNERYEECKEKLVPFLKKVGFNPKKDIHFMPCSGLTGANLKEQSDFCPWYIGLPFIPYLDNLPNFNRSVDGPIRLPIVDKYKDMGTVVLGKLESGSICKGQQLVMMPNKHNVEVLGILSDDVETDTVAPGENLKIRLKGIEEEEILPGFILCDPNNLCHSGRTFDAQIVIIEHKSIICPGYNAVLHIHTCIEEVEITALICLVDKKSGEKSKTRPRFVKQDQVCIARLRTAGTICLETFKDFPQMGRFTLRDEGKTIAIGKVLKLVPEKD
[GSPT1]-[compound of formula (I)]-[CRBN/DDB1] complex, sequence (Q96SW2 whole entry): as the sequence (Q96SW2 whole entry) above
[GSPT1]-[compound of formula (I)]-[CRBN/DDB1] complex, sequence (Q16531 whole entry partner): as the sequence (Q16531 whole entry partner) above
T1 sequence (Q13422 145-167 limits assumed): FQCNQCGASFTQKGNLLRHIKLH
T1 sequence (Q96SW2 whole entry): as the sequence (Q96SW2 whole entry) above
T1 sequence (Q16531 whole entry partner): as the sequence (Q16531 whole entry partner) above
CRBN/DDB1 protein complex, sequence (Q96SW2 whole entry, species assumed): as the sequence (Q96SW2 whole entry) above
CRBN/DDB1 protein complex, sequence (Q16531 whole entry partner, species assumed): as the sequence (Q16531 whole entry partner) above

Consider `Cc1nc2cc(COC(=O)Nc3ccc4c(c3)OCO4)ccc2cc1C1CCC(=O)NC1=O` (stereo not drawn) [Compound 14, (3-(2,6-dioxopiperidin-3-yl)-2-methylquinolin-7-yl)methyl benzo[d][1,3]dioxol-5-ylcarbamate], for which the Ki in assay [1] is greater than 1000 nM. In addition, the “CTG assay Mean minimum” value with GSPT1-HiBiT HEK293 cells is given as “++++ (++++≥75% of viability of the HiBiT-GSPT1 HEK293 cells)”. Moreover, the activation at 1 µM in assay [2], in assay [3] and in assay [4] was less than 10% each time. In addition, the EC50 in assay [5] is 316 to 3160 nM.
Regarding `Cc1nc2cc(COC(=O)Nc3cccc(C(C)(C)C)c3)ccc2cc1C1CCC(=O)NC1=O` (stereo not drawn) [Compound 9, (3-(2,6-dioxopiperidin-3-yl)-2-methylquinolin-7-yl)methyl (3-(tert-butyl)phenyl)carbamate], the inhibition constant (Ki) in assay [1] is greater than 1000 nM. In the assay with GSPT1-HiBiT HEK293 cells, the “CTG assay Mean minimum” value is listed as “++++ (++++≥75% of viability of the HiBiT-GSPT1 HEK293 cells)”. Besides, the activation at 1 µM in assay [2], in assay [3] and in assay [4] was less than 10% each time. Further, in assay [5], the EC50 is 316 to 3160 nM.
Consider `Cc1nc2cc(COC(=O)Nc3cc(C4(C(F)(F)F)CC4)no3)ccc2cc1C1CCC(=O)NC1=O` (stereo not drawn) [Compound 81, (3-(2,6-dioxopiperidin-3-yl)-2-methylquinolin-7-yl)methyl (3-(1-(trifluoromethyl)cyclopropyl)isoxazol-5-yl)carbamate], for which the Ki in assay [1] is less than 500 nM. The “CTG assay Mean minimum” value with GSPT1-HiBiT HEK293 cells is given as “++++ (++++≥75% of viability of the HiBiT-GSPT1 HEK293 cells)”. For the same compound, the activation at 1 µM in assay [2], in assay [3] and in assay [4] was less than 10% throughout. Further, the EC50 in assay [5] was less than 316 nM.
With `Cc1nc2cc(COC(=O)Nc3ccc(Cl)c(Cl)c3)ccc2cc1C1CCC(=O)NC1=O` (stereo not drawn) [Compound 12, (3-(2,6-dioxopiperidin-3-yl)-2-methylquinolin-7-yl)methyl (3,4-dichlorophenyl)carbamate], the inhibitory constant (Ki) in assay [1] is greater than 1000 nM. In addition, the “CTG assay Mean minimum” value with GSPT1-HiBiT HEK293 cells was “++++ (++++≥75% of viability of the HiBiT-GSPT1 HEK293 cells)”. Also, the activation at 1 µM in assay [2], in assay [3] and in assay [4] was less than 10% each time. In assay [5], the EC50 is 316 to 3160 nM.
Turning to `Cc1ccc(NC(=O)OCc2ccc3nc(C)c(N4CCC(=O)NC4=O)cc3c2)cc1Cl` [Compound 29, (3-(2,4-dioxotetrahydropyrimidin-1(2H)-yl)-2-methylquinolin-6-yl)methyl (3-chloro-4-methylphenyl)carbamate], in assay [1], the Ki was less than 500 nM. The “CTG assay Mean minimum” value in the assay with GSPT1-HiBiT HEK293 cells is given as “++++ (++++≥75% of viability of the HiBiT-GSPT1 HEK293 cells)”. Also, the activation at 1 µM in assay [2] was less than 10%; in assay [3], 10 to 25%; in assay [4], less than 10%. Moreover, in assay [5], the EC50 is greater than 3160 nM.
`Cc1ccc(NC(=O)CCc2ccc3cc(C4CCC(=O)NC4=O)c(C)nc3c2)cc1Cl` (stereo not drawn) [Compound 32, N-(3-chloro-4-methylphenyl)-3-(3-(2,6-dioxopiperidin-3-yl)-2-methylquinolin-7-yl)propanamide]: the inhibition constant Ki in assay [1] was 500 to 1000 nM. Moreover, in the assay with GSPT1-HiBiT HEK293 cells, the “CTG assay Mean minimum” value is reported as “++++ (++++≥75% of viability of the HiBiT-GSPT1 HEK293 cells)”. For the same compound, the activation at 1 µM in assay [2], in assay [3] and in assay [4] was less than 10% in each case. In addition, the EC50 in assay [5] is 316 to 3160 nM.
Regarding `Cc1ccc(NC(=O)OCc2ccc3cc(C4CCC(=O)NC4=O)c(C)nc3c2)c(Cl)c1Cl` (stereo not drawn) [Compound 54, (3-(2,6-dioxopiperidin-3-yl)-2-methylquinolin-7-yl)methyl (2,3-dichloro-4-methylphenyl)carbamate], the Ki in assay [1] lay in the range of 500 to 1000 nM. Besides, the “CTG assay Mean minimum” value in the assay with GSPT1-HiBiT HEK293 cells is listed as “++++ (++++≥75% of viability of the HiBiT-GSPT1 HEK293 cells)”. For the same compound, the activation at 1 µM in assay [2], in assay [3] and in assay [4] was less than 10% each time. Further, the EC50 in assay [5] is 316 to 3160 nM.
`Cc1ccc(NC(=O)NCc2ccc3cc(N4CCC(=O)NC4=O)c(C)nc3c2)cc1Cl` [Compound 27, 1-(3-chloro-4-methylphenyl)-3-((3-(2,4-dioxotetrahydropyrimidin-1(2H)-yl)-2-methylquinolin-7-yl)methyl)urea]: in assay [1], the inhibitory constant (Ki) was less than 500 nM. Also, the “CTG assay Mean minimum” value in the assay on GSPT1-HiBiT HEK293 cells was “++++ (++++≥75% of viability of the HiBiT-GSPT1 HEK293 cells)”. In addition, the activation at 1 µM in assay [2], in assay [3] and in assay [4] was less than 10% in each case. The EC50 in assay [5] is less than 316 nM.
For the compound `Cc1nc2cc(COC(=O)Nc3cc(C(C)(C)C)n[nH]3)ccc2cc1C1CCC(=O)NC1=O` (stereo not drawn) [Compound 75, (3-(2,6-dioxopiperidin-3-yl)-2-methylquinolin-7-yl)methyl (3-(tert-butyl)-1H-pyrazol-5-yl)carbamate], in assay [1], the inhibition constant (Ki) is greater than 1000 nM. The “CTG assay Mean minimum” value in the assay on GSPT1-HiBiT HEK293 cells is reported as “++++ (++++≥75% of viability of the HiBiT-GSPT1 HEK293 cells)”. For the same compound, the activation at 1 µM in assay [2], in assay [3] and in assay [4] was less than 10% throughout. In assay [5], the EC50 is 316 to 3160 nM.
For `[2H]C([2H])(OC(=O)Nc1cc(C(C)(C)C)no1)c1ccc2cc(C3CCC(=O)NC3=O)c(C)nc2c1` (stereo not drawn) [Compound 82, (3-(2,6-dioxopiperidin-3-yl)-2-methylquinolin-7-yl)methyl-d2 (3-(tert-butyl)isoxazol-5-yl)carbamate], the inhibition constant Ki in assay [1] was less than 500 nM. For the same compound, the “CTG assay Mean minimum” value with GSPT1-HiBiT HEK293 cells is “++++ (++++≥75% of viability of the HiBiT-GSPT1 HEK293 cells)”. Also, the activation at 1 µM in assay [2], in assay [3] and in assay [4] was less than 10% each time. The EC50 in assay [5] was less than 316 nM.

In general, Ki refers to a measure of affinity in units of concentration, obtained from inhibition or displacement.

The record behind these values is patent US20260232682A1, “GSPT1 DEGRADER COMPOUNDS” (Captor Therapeutics S.A., priority 2023, published 2026).
